Experiment [1] relates to Akt phosphorylation in Molt-4 (PTEN−/SHIP1+) cells. Nature of the experiment: Akt phosphorylation in IGF-1 stimulated Molt-4 lymphocytes (western blot). Also on record: key: +: inhibits Akt phosphorylation at 10 μM; −: no effect on Akt phosphorylation at 10 μM. It is filed as cell-based. As to conditions: 10 μM; IGF-1 stimulation. On the procedure: Jurkat (PTEN−/SHIP1−) or Molt-4 (PTEN−/SHIP1+) cells were starved in serum free RPMI for overnight. In a 15 mL conical tube, 2-3 million serum starved cells (1 million cells per mL) were treated with various concentrations of test compound (0.1, 1, or 10 μM final in 0.1% DMSO) for 30 min at 37° C. followed by stimulation with 100 ng/mL of IGF-1 for 1 hour at 37° C. After stimulation, cells were washed once with ice-cold DPBS and lysed with Lysis Buffer (20 mM Tris-HCl, pH 7.5, 140 mM NaCl, 1% NP-40, Complete Mini Protease Inhibitor Cocktail, 10 mM NaF, 1 mM Na3VO4, 1 mM β-glycerolphosphate) on ice for 30 min with vortexing every 10 min. Samples were then centrifuged at 13,000 rpm for 20 min, and supernatants were collected as total cell lysate samples. Protein concentration was determined using bicinchonic acid assay, and about 15 μg of total protein from each sample was loaded and separated on a 4-12% Tris-Glycine gel. After SDS-PAGE, proteins were transferred from the gel to a nitrocellulose membrane. The membrane was blocked in 5% BSA in PBS containing 0.1% Tween-20 (PBS-T) for 1 hour at room temperature before probing with primary antibodies for overnight at 4° C. The following antibodies were used: mouse anti-SHIP1 (1:500 dilution; Santa Cruz, Calif., USA), rabbit anti-phospho-Akt(Ser473) (1:1000 dilution; Cell Signaling Technologies, MA, USA), rabbit anti-Akt (1:1000; Cell Signaling Technologies, MA, USA), and rabbit anti-actin (1:2000; Cell Signaling Technologies, MA, USA). The membrane was then incubated with goat anti-rabbit or anti-mouse secondary antibodies (1:3000) for 1 hour at room temperature. Target proteins on the membrane were detected with ECL solution and exposed on a film.
Scoring in Table 3 is expressed as follows: + (inhibits Akt phosphorylation at 10 μM); − (no effect on Akt phosphorylation at 10 μM).
For orientation: In western blotting, separated proteins are transferred to a membrane and probed.

Experiment [2] concerns allergen-induced passive cutaneous anaphylaxis. Nature of the experiment: Passive cutaneous anaphylaxis in rats. It is filed as in vivo. The settings on record: oral gavage. On the procedure:
The activity of representative compounds on passive cutaneous anaphylaxis in rats was evaluated according to the procedures disclosed by Goose et al., Immunology 16, 749-760, 1969, which is incorporated herein by reference in its entirety. To induce a passive cutaneous anaphylaxis, rats underwent dorsal intradermal inoculation with 50 μL of anti-ovalbumin-IgE. Sixteen hours after inoculation, all rats were administered test compound by oral gavage (PO). Sixty minutes after oral administration, rats were given a tail vein injection of 5 mg Evan's blue and 1 mg ovalbumin. Sixty minutes following the ovalbumin injection, rats were euthanized using CO2 inhalation. Subsequently, skin edema was visualized, measured and scored. When tested in this assay, representative Compound.

Experiment [3] shares this test system. Nature of the experiment: Passive cutaneous anaphylaxis in mice. It is filed as in vivo. The settings on record: oral gavage, doses less than 20 mg/kg. The procedure: The activity of representative compounds on passive cutaneous anaphylaxis in mice was evaluated according to the procedures disclosed by Ovary, J Immunol 81, 355-357, 1958 and Halpern et al., Br J Pharmacol Chemother 20, 389-398, 1963, both of which are incorporated herein by reference in their entirety. To induce a passive cutaneous anaphylaxis, mice underwent intradermal ear inoculation on their right ear with 25 ng in 20 μL of anti-DNP-IgE. The left ears were untreated and served as negative controls. Twenty-four hours after inoculation, all mice were administered test compound by oral gavage (PO). Sixty minutes after oral administration, mice were given a tail vein injection of 2% Evan's blue (0.2 μm filtered, in 200 μL saline) followed by a second tail IV injection of 100 μg DNP-HSA (in 200 μL). Sixty minutes following the DNP-HSA injection, mice were euthanized using CO2 inhalation. Subsequently, ear biopsies were performed by taking four millimetre punches from both ears, which then underwent Evan's Blue extraction using formamide incubation in 96 well plates. Eighty μL of eluents were transferred to flat-bottom 96-well plates and absorbance read using SpectraMax M5 spectrophotometer (Molecular Devices, Sunnyvale, Calif., USA) at 620 nm. Background readings from all samples were taken at 740 nm and subtracted from the 620 nm readings. Data were reported as OD. […] Scoring in Table 4 is expressed as follows: + (1-30% inhibition); ++ (31-50% inhibition); +++ (>50% inhibition).

Two compounds from patent publication US8101605B2, “SHIP1 modulators and methods related thereto” (Aquinox Pharmaceuticals Inc., priority 2009, dated 2012) can be followed below.

Turning to `CC1(C)CCC[C@]2(C)[C@H]3CS(=O)(=O)c4cc(O)cc(O)c4[C@]3(C)CC[C@@H]12` [Compound No. 28, (1R,10R,11S,16S)-3,5-dihydroxy-1,11,15,15-tetramethyl-8-thiatetracyclo[8.8.0.0^2,7.0^11,16]octadeca-2,4,6-triene-8,8-dione], in experiment [1], the “Akt phosphorylation, Molt-4 (SHIP1+)” value is “+”. Further, the entries for the “inhibition of allergen-induced passive cutaneous anaphylaxis” value in experiment [2] (30 mg/kg) and in experiment [2] (100 mg/kg) were 26% and 38%, respectively. For the same compound, the “Scoring: inhibition of passive cutaneous anaphylaxis” value in experiment [3] was “+++ (>50% inhibition)”.
For `Cc1cc(O)cc2c1[C@]1(C)CC[C@H]3C(C)(C)CCC[C@]3(C)[C@H]1CO2` [Compound No. 6, (1R,10R,11S,16S)-1,3,11,15,15-pentamethyl-8-oxatetracyclo[8.8.0.0^2,7.0^11,16]octadeca-2,4,6-trien-5-ol], in experiment [1], the “Akt phosphorylation, Molt-4 (SHIP1+)” value is recorded as “+”. Also, the figures for the “inhibition of allergen-induced passive cutaneous anaphylaxis” value in experiment [2] (30 mg/kg) and in experiment [2] (100 mg/kg) were 14% and 29%, respectively. In experiment [3], the “Scoring: inhibition of passive cutaneous anaphylaxis” value is given as “++ (31-50% inhibition)”.
